How the values were obtained:
[1] = DRUGMATRIX: ATPase, Na+/K+ enzyme inhibition (substrate: ATP); format: tissue-based, Sus scrofa, Heart; settings: Not Active = under 50% inhibition at 10 µM
[2] = biological target: T1, Vasoactive intestinal polypeptide receptor 1 (Homo sapiens, UniProt P32241); format: cell membranes, Membrane; settings: ht-29; also: in other assays of this panel Not Active means under 50% inhibition at 10 µM
T1 sequence (P32241 whole entry): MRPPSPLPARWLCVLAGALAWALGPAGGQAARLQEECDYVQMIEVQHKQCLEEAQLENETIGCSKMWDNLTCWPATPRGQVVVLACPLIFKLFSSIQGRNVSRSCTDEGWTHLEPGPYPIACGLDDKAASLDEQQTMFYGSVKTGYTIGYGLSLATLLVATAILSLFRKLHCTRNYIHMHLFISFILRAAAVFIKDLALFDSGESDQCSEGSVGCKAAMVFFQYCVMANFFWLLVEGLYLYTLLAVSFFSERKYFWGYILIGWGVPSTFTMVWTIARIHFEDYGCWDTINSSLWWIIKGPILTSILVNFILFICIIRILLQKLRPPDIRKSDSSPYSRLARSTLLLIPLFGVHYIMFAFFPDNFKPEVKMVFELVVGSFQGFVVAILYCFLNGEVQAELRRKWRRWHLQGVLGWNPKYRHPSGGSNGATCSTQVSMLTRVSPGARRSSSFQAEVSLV

Nitric oxide synthase 1 = Nitric oxide synthase 1 (Rattus norvegicus, UniProt P29476); format: tissue-based, Cerebellum; also: in other assays of this panel Not Active means under 50% inhibition at 10 µM
Nitric oxide synthase 1, sequence (P29476 whole entry): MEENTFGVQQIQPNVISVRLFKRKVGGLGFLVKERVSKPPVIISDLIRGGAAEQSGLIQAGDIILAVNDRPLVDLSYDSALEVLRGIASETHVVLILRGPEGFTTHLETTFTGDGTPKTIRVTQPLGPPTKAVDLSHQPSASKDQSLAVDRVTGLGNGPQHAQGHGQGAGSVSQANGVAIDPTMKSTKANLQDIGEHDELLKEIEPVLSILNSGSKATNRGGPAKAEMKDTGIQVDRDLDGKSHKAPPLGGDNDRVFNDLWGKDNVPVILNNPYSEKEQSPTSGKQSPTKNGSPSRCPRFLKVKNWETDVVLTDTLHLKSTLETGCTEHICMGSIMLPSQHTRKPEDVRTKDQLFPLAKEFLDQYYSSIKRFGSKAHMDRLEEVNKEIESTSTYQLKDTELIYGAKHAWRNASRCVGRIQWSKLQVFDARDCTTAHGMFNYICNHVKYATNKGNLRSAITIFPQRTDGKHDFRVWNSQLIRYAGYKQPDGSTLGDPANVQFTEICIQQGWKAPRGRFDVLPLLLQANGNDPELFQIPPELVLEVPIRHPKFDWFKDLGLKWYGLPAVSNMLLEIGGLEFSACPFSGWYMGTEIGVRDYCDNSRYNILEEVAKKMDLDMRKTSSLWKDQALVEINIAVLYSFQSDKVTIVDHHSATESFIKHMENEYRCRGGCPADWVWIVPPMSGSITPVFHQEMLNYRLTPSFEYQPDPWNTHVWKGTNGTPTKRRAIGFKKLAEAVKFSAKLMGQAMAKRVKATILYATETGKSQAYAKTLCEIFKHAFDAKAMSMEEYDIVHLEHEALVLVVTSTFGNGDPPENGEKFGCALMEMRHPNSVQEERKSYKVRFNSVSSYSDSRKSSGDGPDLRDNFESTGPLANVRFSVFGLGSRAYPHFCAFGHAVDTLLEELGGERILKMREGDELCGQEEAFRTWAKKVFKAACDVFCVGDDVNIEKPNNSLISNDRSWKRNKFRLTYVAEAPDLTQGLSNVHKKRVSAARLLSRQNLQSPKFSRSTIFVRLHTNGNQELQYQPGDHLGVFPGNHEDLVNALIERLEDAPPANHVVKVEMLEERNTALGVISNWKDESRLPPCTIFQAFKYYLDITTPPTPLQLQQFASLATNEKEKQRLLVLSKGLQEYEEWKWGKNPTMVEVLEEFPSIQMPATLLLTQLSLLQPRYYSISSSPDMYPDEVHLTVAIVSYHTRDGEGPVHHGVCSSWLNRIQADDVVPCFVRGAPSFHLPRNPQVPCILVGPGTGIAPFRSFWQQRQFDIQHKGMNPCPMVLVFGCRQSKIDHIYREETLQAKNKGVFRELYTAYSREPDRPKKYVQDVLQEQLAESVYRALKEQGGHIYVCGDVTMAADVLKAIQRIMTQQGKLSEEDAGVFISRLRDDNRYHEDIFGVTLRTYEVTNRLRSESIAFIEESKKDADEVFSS

Progesterone receptor = biological target: T2, Progesterone receptor (Bos taurus, UniProt Q690N0); test: DRUGMATRIX: Progesterone radioligand binding (ligand: [3H] R-5020); format: tissue-based, Uterus; settings: Not Active = under 50% inhibition at 10 µM
T2 sequence (Q690N0 whole entry): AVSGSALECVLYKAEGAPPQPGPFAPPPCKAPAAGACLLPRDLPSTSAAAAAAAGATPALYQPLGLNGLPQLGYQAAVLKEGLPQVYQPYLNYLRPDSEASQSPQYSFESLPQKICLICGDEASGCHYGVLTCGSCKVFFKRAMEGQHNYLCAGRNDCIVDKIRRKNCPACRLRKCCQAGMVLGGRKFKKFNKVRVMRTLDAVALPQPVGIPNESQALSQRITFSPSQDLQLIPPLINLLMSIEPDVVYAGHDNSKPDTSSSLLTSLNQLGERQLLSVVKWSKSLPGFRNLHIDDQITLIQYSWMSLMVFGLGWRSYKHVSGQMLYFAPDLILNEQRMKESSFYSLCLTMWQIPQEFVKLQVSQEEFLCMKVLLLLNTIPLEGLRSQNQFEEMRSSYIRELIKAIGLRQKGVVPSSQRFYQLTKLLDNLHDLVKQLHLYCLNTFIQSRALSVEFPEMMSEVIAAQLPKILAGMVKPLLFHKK

[3] = biological target: T3, Receptor-type tyrosine-protein phosphatase C (Homo sapiens, UniProt P08575); design: species or system Escherichia coli;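 also: inhibition of CD45 enzyme activity measured using DiFMUP as substrate; in other assays of this panel Not Active means under 50% inhibition at 10 µM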
T3 sequence (P08575 whole entry): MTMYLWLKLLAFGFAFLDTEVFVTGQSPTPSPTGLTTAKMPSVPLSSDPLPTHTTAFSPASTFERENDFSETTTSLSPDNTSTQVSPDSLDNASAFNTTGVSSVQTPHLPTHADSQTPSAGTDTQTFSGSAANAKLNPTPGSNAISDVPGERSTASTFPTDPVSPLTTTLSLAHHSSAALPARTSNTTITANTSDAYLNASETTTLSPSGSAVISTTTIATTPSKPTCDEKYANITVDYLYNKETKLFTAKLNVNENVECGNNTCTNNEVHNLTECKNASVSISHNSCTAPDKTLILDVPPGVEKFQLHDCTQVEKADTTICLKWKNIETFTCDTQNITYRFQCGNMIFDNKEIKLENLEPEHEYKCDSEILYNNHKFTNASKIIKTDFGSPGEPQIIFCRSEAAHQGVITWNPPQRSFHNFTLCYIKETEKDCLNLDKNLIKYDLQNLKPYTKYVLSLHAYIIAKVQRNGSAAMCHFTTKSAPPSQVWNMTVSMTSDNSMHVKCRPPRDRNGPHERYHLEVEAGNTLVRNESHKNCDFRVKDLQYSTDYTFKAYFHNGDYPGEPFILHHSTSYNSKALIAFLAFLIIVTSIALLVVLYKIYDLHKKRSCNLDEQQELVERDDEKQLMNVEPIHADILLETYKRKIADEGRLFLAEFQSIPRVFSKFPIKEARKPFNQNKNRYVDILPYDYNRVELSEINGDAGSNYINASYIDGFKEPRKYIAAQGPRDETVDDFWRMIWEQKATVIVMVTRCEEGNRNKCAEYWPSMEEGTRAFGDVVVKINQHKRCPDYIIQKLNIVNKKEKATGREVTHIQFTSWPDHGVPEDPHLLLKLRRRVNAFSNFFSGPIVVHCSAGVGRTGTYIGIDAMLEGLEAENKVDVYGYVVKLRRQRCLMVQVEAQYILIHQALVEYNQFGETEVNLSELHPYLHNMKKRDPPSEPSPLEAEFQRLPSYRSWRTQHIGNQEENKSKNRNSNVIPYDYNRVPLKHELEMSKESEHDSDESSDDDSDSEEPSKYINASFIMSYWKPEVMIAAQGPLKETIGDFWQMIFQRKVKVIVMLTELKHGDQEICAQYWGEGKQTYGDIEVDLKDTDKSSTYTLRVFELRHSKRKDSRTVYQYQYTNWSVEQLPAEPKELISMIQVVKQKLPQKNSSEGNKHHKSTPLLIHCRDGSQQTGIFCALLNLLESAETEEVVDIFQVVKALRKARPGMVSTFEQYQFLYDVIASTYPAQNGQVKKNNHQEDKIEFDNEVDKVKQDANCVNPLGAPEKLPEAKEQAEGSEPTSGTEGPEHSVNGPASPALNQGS

Cytochrome P450 1A2 = biological target: T4, Cytochrome P450 1A2 (Homo sapiens, UniProt P05177); settings: bti-tn-5b1-4; also: in other assays of this panel Not Active means under 50% inhibition at 10 µM
T4 sequence (P05177 whole entry): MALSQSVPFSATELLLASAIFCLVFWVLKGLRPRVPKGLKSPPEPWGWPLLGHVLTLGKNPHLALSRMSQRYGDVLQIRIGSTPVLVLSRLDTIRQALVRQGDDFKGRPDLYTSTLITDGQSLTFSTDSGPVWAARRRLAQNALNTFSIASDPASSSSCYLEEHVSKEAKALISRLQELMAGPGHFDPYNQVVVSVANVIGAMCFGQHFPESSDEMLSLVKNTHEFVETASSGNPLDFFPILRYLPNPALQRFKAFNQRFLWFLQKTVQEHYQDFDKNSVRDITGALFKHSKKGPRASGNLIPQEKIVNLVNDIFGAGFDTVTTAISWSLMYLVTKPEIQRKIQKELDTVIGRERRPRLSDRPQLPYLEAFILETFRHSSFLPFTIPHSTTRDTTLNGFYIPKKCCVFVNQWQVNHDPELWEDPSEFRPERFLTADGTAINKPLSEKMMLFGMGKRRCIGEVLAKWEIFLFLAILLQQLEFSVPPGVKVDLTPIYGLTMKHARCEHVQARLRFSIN

C[C@H]1O[C@H](O[C@H]2[C@H](O)[C@@H](O)[C@@H](O[C@H]3[C@H](O)[C@@H](O)C(O)O[C@@H]3CO)O[C@@H]2CO)[C@H](O)[C@@H](O)[C@@H]1N[C@H]1C=C(CO)[C@@H](O)[C@H](O)[C@H]1O (some centres not stated) [ACARBOSE]
Not Active: IC50 [1] | Ki [1] | IC50 [2] | IC50 (Nitric oxide synthase 1) | IC50 (Progesterone receptor) | IC50 [3] | IC50 (Cytochrome P450 1A2) | Ki (Cytochrome P450 1A2)

CC[C@H]1[C@@H]2C[C@H]3[C@@H]4N(C)c5ccccc5[C@]45C[C@@H]([C@@H]2[C@H]5O)N3[C@@H]1O [AJMALINE]
Not Active: IC50 [1] | Ki [1] | IC50 [2] | IC50 (Nitric oxide synthase 1) | IC50 (Progesterone receptor) | IC50 [3] | IC50 (Cytochrome P450 1A2) | Ki (Cytochrome P450 1A2)

CN(C)CCC=C1c2ccccc2CCc2ccccc21 [AMITRIPTYLINE]
Not Active: IC50 [1] | Ki [1] | IC50 [2] | IC50 (Nitric oxide synthase 1) | IC50 (Progesterone receptor) | IC50 [3] | IC50 (Cytochrome P450 1A2) | Ki (Cytochrome P450 1A2)

CC(=O)Oc1ccccc1C(=O)O [ASPIRIN]
Not Active: IC50 [1] | Ki [1] | IC50 [2] | IC50 (Nitric oxide synthase 1) | IC50 (Progesterone receptor) | IC50 [3] | IC50 (Cytochrome P450 1A2) | Ki (Cytochrome P450 1A2)

CC(=O)OC[C@H]1O[C@@H](n2ncc(=O)[nH]c2=O)[C@H](OC(C)=O)[C@@H]1OC(C)=O [AZARIBINE]
Not Active: IC50 [1] | Ki [1] | IC50 [2] | IC50 (Nitric oxide synthase 1) | IC50 (Progesterone receptor) | IC50 [3] | IC50 (Cytochrome P450 1A2) | Ki (Cytochrome P450 1A2)

C[C@H]1[C@H](NC(=O)/C(=N\OC(C)(C)C(=O)O)c2csc(N)n2)C(=O)N1S(=O)(=O)O [AZTREONAM]
Not Active: IC50 [1] | Ki [1] | IC50 [2] | IC50 (Nitric oxide synthase 1) | IC50 (Progesterone receptor) | IC50 [3] | IC50 (Cytochrome P450 1A2) | Ki (Cytochrome P450 1A2)

O=C(O)CCNC(=O)c1ccc(/N=N/c2ccc(O)c(C(=O)O)c2)cc1 [BALSALAZIDE]
Not Active: IC50 [1] | Ki [1] | IC50 [2] | IC50 (Nitric oxide synthase 1) | IC50 (Progesterone receptor) | IC50 [3] | IC50 (Cytochrome P450 1A2) | Ki (Cytochrome P450 1A2)

COc1cc(OC)c(C(=O)CCCN2CCCC2)c(OC)c1 [BUFLOMEDIL]
Not Active: IC50 [1] | Ki [1] | IC50 [2] | IC50 (Nitric oxide synthase 1) | IC50 (Progesterone receptor) | IC50 [3] | IC50 (Cytochrome P450 1A2) | Ki (Cytochrome P450 1A2)

Cn1c(=O)c2c(ncn2C)n(C)c1=O [CAFFEINE]
Not Active: IC50 [1] | Ki [1] | IC50 [2] | IC50 (Nitric oxide synthase 1) | IC50 (Progesterone receptor) | IC50 [3] | IC50 (Cytochrome P450 1A2) | Ki (Cytochrome P450 1A2)

ClC(Cl)(Cl)Cl [CARBON TETRACHLORIDE]
Not Active: IC50 [1] | Ki [1] | IC50 [2] | IC50 (Nitric oxide synthase 1) | IC50 (Progesterone receptor) | IC50 [3] | IC50 (Cytochrome P450 1A2) | Ki (Cytochrome P450 1A2)

CO/N=C(\C(=O)N[C@@H]1C(=O)N2C(C(=O)O)=C(COC(C)=O)CS[C@H]12)c1csc(N)n1 [CEFOTAXIME]
Not Active: IC50 [1] | Ki [1] | IC50 [2] | IC50 (Nitric oxide synthase 1) | IC50 (Progesterone receptor) | IC50 [3] | IC50 (Cytochrome P450 1A2) | Ki (Cytochrome P450 1A2)

CNC1=Nc2ccc(Cl)cc2C(c2ccccc2)=[N+]([O-])C1 [CHLORDIAZEPOXIDE]
Not Active: IC50 [1] | Ki [1] | IC50 [2] | IC50 (Nitric oxide synthase 1) | IC50 (Progesterone receptor) | IC50 [3] | IC50 (Cytochrome P450 1A2) | Ki (Cytochrome P450 1A2)

Cc1cc(O)cc(C)c1Cl [CHLOROXYLENOL]
Not Active: IC50 [1] | Ki [1] | IC50 [2] | IC50 (Nitric oxide synthase 1) | IC50 (Progesterone receptor) | IC50 [3] | IC50 (Cytochrome P450 1A2) | Ki (Cytochrome P450 1A2)

CCCNC(=O)NS(=O)(=O)c1ccc(Cl)cc1 [CHLORPROPAMIDE]
Not Active: IC50 [1] | Ki [1] | IC50 [2] | IC50 (Nitric oxide synthase 1) | IC50 (Progesterone receptor) | IC50 [3] | IC50 (Cytochrome P450 1A2) | Ki (Cytochrome P450 1A2)

NS(=O)(=O)c1cc(C2(O)NC(=O)c3ccccc32)ccc1Cl (configuration not stated) [CHLORTHALIDONE]
Not Active: IC50 [1] | Ki [1] | IC50 [2] | IC50 (Nitric oxide synthase 1) | IC50 (Progesterone receptor) | IC50 [3] | IC50 (Cytochrome P450 1A2) | Ki (Cytochrome P450 1A2)

O=C(O)CC(O)(CC(=O)O)C(=O)O [CITRIC ACID]
Not Active: IC50 [1] | Ki [1] | IC50 [2] | IC50 (Nitric oxide synthase 1) | IC50 (Progesterone receptor) | IC50 [3] | IC50 (Cytochrome P450 1A2) | Ki (Cytochrome P450 1A2)

CC(C)NCC(O)c1ccccc1Cl (configuration not stated) [CLORPRENALINE]
Not Active: IC50 [1] | Ki [1] | IC50 [2] | IC50 (Nitric oxide synthase 1) | IC50 (Progesterone receptor) | IC50 [3] | IC50 (Cytochrome P450 1A2) | Ki (Cytochrome P450 1A2)

CN1CCN(C(c2ccccc2)c2ccccc2)CC1 [CYCLIZINE]
Not Active: IC50 [1] | Ki [1] | IC50 [2] | IC50 (Nitric oxide synthase 1) | IC50 (Progesterone receptor) | IC50 [3] | IC50 (Cytochrome P450 1A2) | Ki (Cytochrome P450 1A2)

CN1C[C@@H]2C[C@H]1CN2c1cc2c(cc1F)c(=O)c(C(=O)O)cn2C1CC1 [DANOFLOXACIN]
Not Active: IC50 [1] | Ki [1] | IC50 [2] | IC50 (Nitric oxide synthase 1) | IC50 (Progesterone receptor) | IC50 [3] | IC50 (Cytochrome P450 1A2) | Ki (Cytochrome P450 1A2)
